Test results taken from patent US20170290774A1, “NEUROKININ-1 RECEPTOR ANTAGONIST COMPOSITION FOR TREATMENT OF DISEASES AND CONDITIONS OF THE RESPIRATORY TRACT” (PLUS VITECH, S.L., priority 2014, published 2017).

How the values were obtained:
Type in all cases: physicochemical
Settings in all cases: 25° C.
[1] = Saturation concentration in olive oil:ethanol (9:1)
Description: (§1) Each of said mixtures was continuously and gently stirred for 10 minutes at ambient temperature (25° C.) and then maintained at rest for 60 minutes. The saturation concentration was considered to be that which was immediately less than a concentration where deposition was observed, but in which no deposition of the active ingredient was observed.

[2] = Saturation concentration of NK1 receptor antagonists in olive oil
Description: as §1, with “lower in the aforementioned series” for “less”

[3] = Saturation concentration in different oils (soy, sunflower, rapeseed)
Description: as §1

Row | Saturation concentration [1] [nM] | Saturation concentration [2] [nM] | Saturation concentration ([3]; Rapeseed oil) [nM] | Saturation concentration ([3]; Soy oil) [nM] | Saturation concentration ([3]; Sunflower oil) [nM] | Compound
1 | 100 | 80 | 90 | 90 | 80 | CC(=O)N[C@@H](Cc1c[nH]c2ccccc12)C(=O)OCc1cc(C(F)(F)F)cc(C(F)(F)F)c1 [L-732,138]
2 | 65 | 40 | 70 | 60 | 60 | CC(=O)N1CCN([C@H]2CCN(C(=O)N(C)[C@H](C)c3cc(C(F)(F)F)cc(C(F)(F)F)c3)[C@@H](c3ccc(F)cc3C)C2)CC1 [Casopitant]
